Assay: Accelerated stability testing: impurity analysis by reverse phase HPLC
Format: physicochemical
Experimental: Each of the formulations prepared was subjected to accelerated stability testing at 40° C.
The analysis of the impurities was undertaken using reverse phase High Performance Liquid Chromatography (HPLC). HPLC is a technique that is widely used and well known in the art. HPLC can be used to measure the potency of the docetaxel where potency is defined as a percentage of the initial concentration of docetaxel. HPLC can also be used to measure the relative proportions of known and unknown impurities in a docetaxel formulation. Any suitable HPLC method which will separate the impurities may be used.
Impurity levels were calculated by peak area normalisation.

[1] = Example 1, one month, accelerated stability 40° C.
[2] = Example 2, one month, accelerated stability 40° C.
[3] = Example 8, Initial (Docetaxel = docetaxel itself)

CC(=O)O[C@@]12CO[C@@H]1C[C@H](O)[C@@]1(C)C(=O)[C@H](O)C3=C(C)[C@@H](OC(=O)[C@H](O)[C@@H](NC(=O)OC(C)(C)C)c4ccccc4)C[C@@](O)([C@@H](OC(=O)c4ccccc4)[C@H]21)C3(C)C [Docetaxel, (2R,3S)-N-carboxy-3-phenylisoserine,N-tert-butylester, 13 ester with 5β-20-epoxy-1,2α,4,7β,10β,13α-hexahydroxytax-11-en-9-one 4-acetate 2 benzoate]
Impurity B (RRT = 0.89) (Example 1, initial time point): 0.08 % peak area
Impurity E (RRT = 1.33) (Example 1, initial time point): 0.07 % peak area
Impurity F (RRT = 1.47) (Example 1, initial time point): 0.10 % peak area
Total Impurities (Example 1, initial time point): 0.25 % peak area
Impurity B (RRT = 0.89) [1]: 0.08 % peak area
Impurity E (RRT = 1.33) [1]: 0.07 % peak area
Impurity F (RRT = 1.47) [1]: 0.10 % peak area
Total Impurities [1]: 0.25 % peak area
Impurity E (RRT = 1.34) (Example 2, initial time point): 0.16 % peak area
Impurity F (RRT = 1.48) (Example 2, initial time point): 0.09 % peak area
Total Impurities (Example 2, initial time point): 0.25 % peak area
Impurity E (RRT = 1.34) [2]: 0.16 % peak area
Impurity F (RRT = 1.48) [2]: 0.09 % peak area
Total Impurities [2]: 0.25 % peak area
Impurity RRT 0.866 [3]: 0.05 % peak area
Impurity RRT 1.821 [3]: 0.08 % peak area
Total impurity [3]: 0.13 % peak area
